# Measured values: patent publication US6706686B2, “Inhibition of histone deacetylase as a treatment for cardiac hypertrophy” (The Regents of the University of Colorado, priority 2001, dated 2004)
# Test system: ANF in neonatal cardiomyocytes
# Assay: ANF chemiluminescence detection, dose response
# Type: cell-based, rat
# Experimental: FIGS. 4A-C. […] As in the transfection experiments, phenylephrine (100 µM) induces ANF expression over three-fold. […] (FIGS. 4B and 4C) The graphs show a reduction of the chemiluminent detection of ANF in the culture medium with increasing concentrations of the HDAC inhibitors TSA (FIG. 4B) and sodium butyrate (FIG. 4C) when co-cultured with the hypertrophic stimulants FBS, PE or ET-1.
# Chemilumenescence. Neonatal cardiomyocytes were seeded onto 96-well plates and treated for 72 hrs. The cells were washed twice in 1×PBS, fixed in 4% paraformaldehyde/1×PBS, and permeabilized with 0.1% Triton-X100. After blocking, the cells were incubated 1 hr. with 10 μg/ml monoclonal anti-ANF antibody (Biodesign). The wells were washed twice with 1% BSA/1× PBS and then incubated for 1 hr. with goat anti-mouse IgG-Fc-HRP (Jackson Labs, […]) at 1:1000 in 1× PBS/1% BSA. Cells were washed twice with 1% BSA/1×PBS, twice with 1× PBS, then blotted dry. Luminol (Pierce, Rockford, Ill.) was added and the chemiluminescence was detected in a Fusion Plate Reader (Perkin Elmer/Packard).
smiles,measurement,setting,value
"CC(/C=C/C(=O)NO)=C\[C@@H](C)C(=O)c1ccc(N(C)C)cc1 [TSA, Trichostatin A]",minimal concentration that inhibited the hypertrophic response (ANF) of each growth stimulant,"FBS, PE, ET-1",40 nM
same,"induction of ANF expression by FBS, PE and ET-1",increasing concentrations,countered the induction of ANF expression
same,ANF expression at very low doses,very low doses (0.2 nM printed for sodium butyrate),only a marginal increase
